Legend:
[1] = GC-MS analysis of perfume leaked out of the capsules during one month storage in concentrated liquid detergent; assay type: physicochemical; details: for Percentage of ingredient having leaked out of the capsules during one month storage, % In concentrated Liquid Detergent 22° C. / Percentage of ingredient having leaked out of the capsules during one month storage, % In concentrated Liquid Detergent 37° C.: perfume of Example 6 encapsulated per Example 2, capsules at 1.25% in Tide 2x Concentrated HE Free; for Percentage of ingredient having leaked out of the capsules during one month storage, % In concentrated Liquid Detergent 22° C. / Percentage of perfume having leaked out of the capsules upon one month storage, % In Concentrated Liquid Detergent at 22° C.: one month at 22° C.; for Percentage of ingredient having leaked out of the capsules during one month storage, % In concentrated Liquid Detergent 37° C. / Percentage of perfume having leaked out of the capsules upon one month storage, % In Concentrated Liquid Detergent at 37° C.: one month at 37° C.; for Percentage of perfume having leaked out of the capsules upon one month storage, % In Concentrated Liquid Detergent at 22° C. / Percentage of perfume having leaked out of the capsules upon one month storage, % In Concentrated Liquid Detergent at 37° C.: perfume of Example 9 encapsulated per Example 2, capsules at 1.25% in Tide 2x Concentrated HE Free
Excerpt: The concentrated liquid detergent base was a commercially available Tide® 2× Concentrated HE Free of perfume & dye (trademark of Procter and Gamble, USA).
The concentrated liquid detergent base was the commercially available Tide® 2× Concentrated HE Free of perfume & dye (trademark of Procter and Gamble, USA).

[2] = GC-MS analysis of perfume leaked out of the capsules during one month storage in concentrated fabric softener; assay type: physicochemical; details: for Percentage of ingredient having leaked out of the capsules during one month storage, % In fabric softener 37° C.: perfume of Example 6 encapsulated per Example 2, capsules at 1.25%; for Percentage of ingredient having leaked out of the capsules during one month storage, % In fabric softener 37° C. / Percentage of perfume having leaked out of the capsules upon one month storage, % In fabric softener at 37° C.: one month at 37° C.; for Percentage of perfume having leaked out of the capsules upon one month storage, % In fabric softener at 22° C. / Percentage of perfume having leaked out of the capsules upon one month storage, % In fabric softener at 37° C.: perfume of Example 9 encapsulated per Example 2, capsules at 1.25%; for Percentage of perfume having leaked out of the capsules upon one month storage, % In fabric softener at 22° C.: one month at 22° C.
Protocol: The concentrated fabric softener base was prepared by admixing the ingredients listed in Table 4, in the amounts indicated.

[3] = LogP of the perfume ingredients
[4] = ingredients of the perfume of Example 6 (Table 1)
[5] = ingredients of the perfume of Example 9 (Table 9)

Compound	Percentage of ingredient having leaked out of the capsules during one month storage, % In concentrated Liquid Detergent 22° C. [1]	Percentage of ingredient having leaked out of the capsules during one month storage, % In concentrated Liquid Detergent 37° C. [1]	Percentage of perfume having leaked out of the capsules upon one month storage, % In Concentrated Liquid Detergent at 22° C. [1]	Percentage of perfume having leaked out of the capsules upon one month storage, % In Concentrated Liquid Detergent at 37° C. [1]	Percentage of ingredient having leaked out of the capsules during one month storage, % In fabric softener 37° C. [2]	Percentage of perfume having leaked out of the capsules upon one month storage, % In fabric softener at 22° C. [2]	Percentage of perfume having leaked out of the capsules upon one month storage, % In fabric softener at 37° C. [2]	LogP [3, 4]	LogP [3, 5]
C/C=C/C(=O)C1C(C)C=CCC1(C)C (stereo not drawn) [δ-Damascone]	1%	8%	3%	16%	3%	3%	10%	4.13	4.13
(1′R,E)-3,3-dimethyl-5-(2′,2′,3′-trimethyl-3′-cyclopenten-1′-yl)-4-penten-2-ol [Polysantol ®]	1%	6%	–	–	2%	–	–	5.39	–
Terpenyl acetate	–	–	3%	37%	–	3%	17%	–	4.34

— US8426353B2, “Process for preparing polyurea microcapsules” (Firmenich SA, priority 2008, dated 2013)
